In brackets after ≈: the same amount, converted by molar mass.
Legend:
Assay in all cases: MIC, broth microdilution in Meuller-Hinton broth (NCCLS)
[1] = tested on: 569 E. faecium (GRE); type: cell-based; conditions: glycopeptide-resistant clinical isolate
Method: (§1) Antibacterial activity in vitro was investigated by broth microdilution method in Meuller-Hinton broth as recommended by NCCLS. All strains tested were clinical isolates either sensitive or resistant to natural glycopeptides. Results are reported in the tables as MIC (minimal inhibitory concentration) in μg/ml.
(§2) The glycopeptides were tested against a variety of strains, indicated below, including Staphylococus epidermidis, Staphylococus haemolyticus, glycopeptides-intermediate Staphylococus aureus (GISA), glocopeptide-sensitive Enterococcus faecalis (GSE), and glocopeptide-resistant Enterococcus faecalis (GRE). Results are shown in the table as minimum inhibitory concentration (MIC) in units of μg/ml: […]

[2] = tested on: 568 E. faecium (GSE); type: cell-based; conditions: glycopeptide-sensitive clinical isolate
Method: as §1, §2

[3] = tested on: 3798 S. aureus (GISA); type: cell-based, Staphylococus aureus; conditions: glycopeptides-intermediate clinical isolate
Method: as §1, §2

[4] = tested on: 3797 S. aureus (GISA); type: cell-based, Staphylococus aureus; conditions: glycopeptides-intermediate clinical isolate
Method: as §1, §2

[5] = tested on: 559 E. faecalis (GSE); type: cell-based, Enterococcus faecalis; conditions: glycopeptide-sensitive clinical isolate
Method: as §1, §2

[6] = tested on: 560 E. faecalis (GRE); type: cell-based, Enterococcus faecalis; conditions: glycopeptide-resistant clinical isolate
Method: as §1, §2

[7] = tested on: 602 S. haemolyticus; type: cell-based, Staphylococus haemolyticus; conditions: clinical isolate
Method: as §1, §2

[8] = tested on: 533 S. epidermidis; type: cell-based, Staphylococus epidermidis; conditions: clinical isolate
Method: as §1, §2

## CCCCc1ccc(CNCC(=O)NC2(C)CC(OC3C(Oc4c5cc6cc4Oc4ccc(cc4Cl)C(O)C(NC(=O)C(CC(C)C)NC)C(=O)NC(CC(N)=O)C(=O)NC6C(=O)NC4C(=O)NC(C(=O)NC(C(=O)O)c6cc(O)cc(O)c6-c6cc4ccc6O)C(OC4CC(C)(N)C(O)C(C)O4)c4ccc(cc4)O5)OC(CO)C(O)C3O)OC(C)C2O)cc1 (stereo not shown) [Compound 57, N′-p-BuBnHNCH2CO eremomycin]
[1]
  MIC 569 E. faecium (GRE): 4 µg/mL (≈ 2.27 µM)
[2]
  MIC 568 E. faecium (GSE): 0.5 µg/mL (≈ 0.284 µM)
[3]
  MIC 3798 S. aureus (GISA): 4 µg/mL (≈ 2.27 µM)
[4]
  MIC 3797 S. aureus (GISA): 4 µg/mL (≈ 2.27 µM)
[5]
  MIC 559 E. faecalis (GSE): 0.5 µg/mL (≈ 0.284 µM)
[6]
  MIC 560 E. faecalis (GRE): 4 µg/mL (≈ 2.27 µM)
[7]
  MIC 602 S. haemolyticus: 2 µg/mL (≈ 1.14 µM)
[8]
  MIC 533 S. epidermidis: 0.5 µg/mL (≈ 0.284 µM)

## CNC(CC(C)C)C(=O)NC1C(=O)NC(CC(N)=O)C(=O)NC2C(=O)NC3C(=O)NC(C(=O)NC(C(=O)NC4C5CC6CC(C5)CC4C6)c4cc(O)cc(O)c4-c4cc3ccc4O)C(OC3CC(C)(N)C(O)C(C)O3)c3ccc(cc3)Oc3cc2cc(c3OC2OC(CO)C(O)C(O)C2OC2CC(C)(N)C(O)C(C)O2)Oc2ccc(cc2Cl)C1O (stereo not shown) [Compound 213, 2-adamantanamino eremomycin]
[1]
  MIC 569 E. faecium (GRE): 4 µg/mL (≈ 2.37 µM)
[2]
  MIC 568 E. faecium (GSE): 0.5 µg/mL (≈ 0.296 µM)
[3]
  MIC 3798 S. aureus (GISA): 2 µg/mL (≈ 1.18 µM)
[4]
  MIC 3797 S. aureus (GISA): 1 µg/mL (≈ 0.591 µM)
[5]
  MIC 559 E. faecalis (GSE): 0.5 µg/mL (≈ 0.296 µM)
[6]
  MIC 560 E. faecalis (GRE): 8 µg/mL (≈ 4.73 µM)
[7]
  MIC 602 S. haemolyticus: 0.25 µg/mL (≈ 0.148 µM)
[8]
  MIC 533 S. epidermidis: 0.25 µg/mL (≈ 0.148 µM)

## CCCCc1ccc(CNCC(=O)NC2(C)CC(OC3C(Oc4c5cc6cc4Oc4ccc(cc4Cl)C(O)C(NC(=O)C(CC(C)C)NC)C(=O)NC(CC(N)=O)C(=O)NC6C(=O)NC4C(=O)NC(C(=O)NC(C(=O)NC)c6cc(O)cc(O)c6-c6cc4ccc6O)C(OC4CC(C)(N)C(O)C(C)O4)c4ccc(cc4)O5)OC(CO)C(O)C3O)OC(C)C2O)cc1 (stereo not shown) [Compound 77]
[1]
  MIC 569 E. faecium (GRE): 8 µg/mL (≈ 4.51 µM)
[2]
  MIC 568 E. faecium (GSE): 2 µg/mL (≈ 1.13 µM)
[3]
  MIC 3798 S. aureus (GISA): 2 µg/mL (≈ 1.13 µM)
[4]
  MIC 3797 S. aureus (GISA): 2 µg/mL (≈ 1.13 µM)
[5]
  MIC 559 E. faecalis (GSE): 2 µg/mL (≈ 1.13 µM)
[6]
  MIC 560 E. faecalis (GRE): 8 µg/mL (≈ 4.51 µM)
[7]
  MIC 602 S. haemolyticus: 2 µg/mL (≈ 1.13 µM)
[8]
  MIC 533 S. epidermidis: 1 µg/mL (≈ 0.564 µM)

## CCCCc1ccc(CNCC(=O)NC2(C)CC(OC3C(Oc4c5cc6cc4Oc4ccc(cc4Cl)C(O)C4NC(=O)C(NC(=O)C6NC(=O)C(CC(N)=O)NC(=O)C(NC(=O)C(CC(C)C)NC)C(O)c6ccc(c(Cl)c6)O5)c5ccc(O)c(c5)-c5c(O)cc(O)cc5C(C(=O)O)NC4=O)OC(CO)C(O)C3O)OC(C)C2O)cc1 (stereo not shown) [Compound 182]
[1]
  MIC 569 E. faecium (GRE): 32 µg/mL (≈ 19.4 µM)
[2]
  MIC 568 E. faecium (GSE): 0.5 µg/mL (≈ 0.303 µM)
[3]
  MIC 3798 S. aureus (GISA): 2 µg/mL (≈ 1.21 µM)
[4]
  MIC 3797 S. aureus (GISA): 2 µg/mL (≈ 1.21 µM)
[5]
  MIC 559 E. faecalis (GSE): 1 µg/mL (≈ 0.605 µM)
[6]
  MIC 560 E. faecalis (GRE): 32 µg/mL (≈ 19.4 µM)
[7]
  MIC 602 S. haemolyticus: 0.5 µg/mL (≈ 0.303 µM)
[8]
  MIC 533 S. epidermidis: 0.25 µg/mL (≈ 0.151 µM)

## CNC(CC(C)C)C(=O)NC1C(=O)NC(CC(N)=O)C(=O)NC2C(=O)NC3C(=O)NC(C(=O)NC(C(=O)O)c4cc(O)cc(O)c4-c4cc3ccc4O)C(OC3CC(C)(N)C(O)C(C)O3)c3ccc(cc3)Oc3cc2cc(c3OC2OC(CO)C(O)C(O)C2OC2CC(C)(NC(=O)[C@H](N)Cc3ccccc3)C(O)C(C)O2)Oc2ccc(cc2Cl)C1O (stereo partly shown) [Compound 229]
[1]
  MIC 569 E. faecium (GRE): >64 µg/mL
[2]
  MIC 568 E. faecium (GSE): 0.25 µg/mL (≈ 0.147 µM)
[3]
  MIC 3798 S. aureus (GISA): >32 µg/mL
[4]
  MIC 3797 S. aureus (GISA): >32 µg/mL
[5]
  MIC 559 E. faecalis (GSE): 0.5 µg/mL (≈ 0.293 µM)
[6]
  MIC 560 E. faecalis (GRE): >64 µg/mL
[7]
  MIC 602 S. haemolyticus: 1 µg/mL (≈ 0.586 µM)
[8]
  MIC 533 S. epidermidis: 1 µg/mL (≈ 0.586 µM)

## CNC(CC(C)C)C(=O)NC1C(=O)NC(CC(N)=O)C(=O)NC2C(=O)NC3C(=O)NC(C(=O)NC(C(=O)O)c4cc(O)cc(O)c4-c4cc3ccc4O)C(OC3CC(C)(N)C(O)C(C)O3)c3ccc(cc3)Oc3cc2cc(c3OC2OC(CO)C(O)C(O)C2OC2CC(C)(NC(=O)[C@@H](N)Cc3ccc(OCc4ccccc4)cc3)C(O)C(C)O2)Oc2ccc(cc2Cl)C1O (stereo partly shown) [Compound 228]
[1]
  MIC 569 E. faecium (GRE): >64 µg/mL
[2]
  MIC 568 E. faecium (GSE): 2 µg/mL (≈ 1.1 µM)
[3]
  MIC 3798 S. aureus (GISA): 16 µg/mL (≈ 8.83 µM)
[4]
  MIC 3797 S. aureus (GISA): 16 µg/mL (≈ 8.83 µM)
[5]
  MIC 559 E. faecalis (GSE): 2 µg/mL (≈ 1.1 µM)
[6]
  MIC 560 E. faecalis (GRE): >64 µg/mL
[7]
  MIC 602 S. haemolyticus: 4 µg/mL (≈ 2.21 µM)
[8]
  MIC 533 S. epidermidis: 4 µg/mL (≈ 2.21 µM)

## CCCCCCCCOc1ccc(CNCC(=O)NC2(C)CC(OC3C(Oc4c5cc6cc4Oc4ccc(cc4Cl)C(O)C4NC(=O)C(NC(=O)C6NC(=O)C(CC(N)=O)NC(=O)C(NC(=O)C(CC(C)C)NC)C(O)c6ccc(c(Cl)c6)O5)c5ccc(O)c(c5)-c5c(O)cc(O)cc5C(C(=O)NCc5ccc(F)cc5)NC4=O)OC(CO)C(O)C3O)OC(C)C2O)cc1 (stereo not shown) [Compound 277]
[1]
  MIC 569 E. faecium (GRE): 8 µg/mL (≈ 4.37 µM)
[2]
  MIC 568 E. faecium (GSE): 4 µg/mL (≈ 2.18 µM)
[3]
  MIC 3798 S. aureus (GISA): 4 µg/mL (≈ 2.18 µM)
[4]
  MIC 3797 S. aureus (GISA): 8 µg/mL (≈ 4.37 µM)
[5]
  MIC 559 E. faecalis (GSE): 4 µg/mL (≈ 2.18 µM)
[6]
  MIC 560 E. faecalis (GRE): 8 µg/mL (≈ 4.37 µM)
[7]
  MIC 602 S. haemolyticus: 8 µg/mL (≈ 4.37 µM)
[8]
  MIC 533 S. epidermidis: 4 µg/mL (≈ 2.18 µM)

## CNC(CC(C)C)C(=O)NC1C(=O)NC(CC(N)=O)C(=O)NC2C(=O)NC3C(=O)NC(C(=O)NC(C(=O)O)c4cc(O)cc(O)c4-c4cc3ccc4O)C(OC3CC(C)(N)C(O)C(C)O3)c3ccc(cc3)Oc3cc2cc(c3OC2OC(CO)C(O)C(O)C2OC2CC(C)(NC(=O)CNCc3cn(Cc4ccccc4)c4ccccc34)C(O)C(C)O2)Oc2ccc(cc2Cl)C1O (stereo not shown) [Compound 225]
[1]
  MIC 569 E. faecium (GRE): 16 µg/mL (≈ 8.72 µM)
[2]
  MIC 568 E. faecium (GSE): 4 µg/mL (≈ 2.18 µM)
[3]
  MIC 3798 S. aureus (GISA): 4 µg/mL (≈ 2.18 µM)
[4]
  MIC 3797 S. aureus (GISA): 4 µg/mL (≈ 2.18 µM)
[5]
  MIC 559 E. faecalis (GSE): 2 µg/mL (≈ 1.09 µM)
[6]
  MIC 560 E. faecalis (GRE): 64 µg/mL (≈ 34.9 µM)
[7]
  MIC 602 S. haemolyticus: 2 µg/mL (≈ 1.09 µM)
[8]
  MIC 533 S. epidermidis: 1 µg/mL (≈ 0.545 µM)

## CCCCc1ccc(CN[C@@H](CCCN)C(=O)NC2(C)CC(OC3C(Oc4c5cc6cc4Oc4ccc(cc4Cl)C(O)C(NC(=O)C(CC(C)C)NC)C(=O)NC(CC(N)=O)C(=O)NC6C(=O)NC4C(=O)NC(C(=O)NC(C(=O)O)c6cc(O)cc(O)c6-c6cc4ccc6O)C(OC4CC(C)(N)C(O)C(C)O4)c4ccc(cc4)O5)OC(CO)C(O)C3O)OC(C)C2O)cc1 (stereo partly shown) [Compound 242]
[1]
  MIC 569 E. faecium (GRE): 8 µg/mL (≈ 4.4 µM)
[2]
  MIC 568 E. faecium (GSE): 0.5 µg/mL (≈ 0.275 µM)
[3]
  MIC 3798 S. aureus (GISA): 4 µg/mL (≈ 2.2 µM)
[4]
  MIC 3797 S. aureus (GISA): 4 µg/mL (≈ 2.2 µM)
[5]
  MIC 559 E. faecalis (GSE): 1 µg/mL (≈ 0.55 µM)
[6]
  MIC 560 E. faecalis (GRE): 8 µg/mL (≈ 4.4 µM)
[7]
  MIC 602 S. haemolyticus: 1 µg/mL (≈ 0.55 µM)
[8]
  MIC 533 S. epidermidis: 0.25 µg/mL (≈ 0.137 µM)

## CNC(CC(C)C)C(=O)NC1C(=O)NC(CC(N)=O)C(=O)NC2C(=O)NC3C(=O)NC(C(=O)NC(C(=O)O)c4cc(O)cc(O)c4-c4cc3ccc4O)C(O)c3ccc(c(Cl)c3)Oc3cc2cc(c3OC2OC(CO)C(O)C(O)C2OC2CC(C)(NC(=O)CNc3ccc4ccccc4n3)C(O)C(C)O2)Oc2ccc(cc2Cl)C1O (stereo not shown) [Compound 298]
[1]
  MIC 569 E. faecium (GRE): >64 µg/mL
[2]
  MIC 568 E. faecium (GSE): 4 µg/mL (≈ 2.45 µM)
[3]
  MIC 3798 S. aureus (GISA): 8 µg/mL (≈ 4.9 µM)
[4]
  MIC 3797 S. aureus (GISA): 8 µg/mL (≈ 4.9 µM)
[5]
  MIC 559 E. faecalis (GSE): 2 µg/mL (≈ 1.22 µM)
[6]
  MIC 560 E. faecalis (GRE): 64 µg/mL (≈ 39.2 µM)
[7]
  MIC 602 S. haemolyticus: 8 µg/mL (≈ 4.9 µM)
[8]
  MIC 533 S. epidermidis: 8 µg/mL (≈ 4.9 µM)

## CCCCOc1ccc(CNCC(=O)NC2(C)CC(OC3C(Oc4c5cc6cc4Oc4ccc(cc4Cl)C(O)C4NC(=O)C(NC(=O)C6NC(=O)C(CC(N)=O)NC(=O)C(NC(=O)C(CC(C)C)NC)C(O)c6ccc(c(Cl)c6)O5)c5ccc(O)c(c5)-c5c(O)cc(O)cc5C(C(=O)O)NC4=O)OC(CO)C(O)C3O)OC(C)C2O)cc1 (stereo not shown) [Compound 218]
[1]
  MIC 569 E. faecium (GRE): >64 µg/mL
[2]
  MIC 568 E. faecium (GSE): 0.5 µg/mL (≈ 0.3 µM)
[3]
  MIC 3798 S. aureus (GISA): 1 µg/mL (≈ 0.599 µM)
[4]
  MIC 3797 S. aureus (GISA): 0.5 µg/mL (≈ 0.3 µM)
[5]
  MIC 559 E. faecalis (GSE): 1 µg/mL (≈ 0.599 µM)
[6]
  MIC 560 E. faecalis (GRE): >64 µg/mL
[7]
  MIC 602 S. haemolyticus: 0.13 µg/mL (≈ 0.0779 µM)
[8]
  MIC 533 S. epidermidis: 0.13 µg/mL (≈ 0.0779 µM)
